Experimental data published in patent publication US6544991B2, “Compositions and methods for treating bacterial infections” (priority 2000, dated 2003).

How the values were obtained:
MRSA strains = experiment: MIC by agar dilution or microbroth dilution method (NCCLS); type: cell-based, Staph. aureus
Experimental: (§1) Bacterial isolates were obtained from human infections. The isolates were maintained frozen in a liquid nitrogen freezer and plated on Trypticase Soy Agar (TSA) plates supplemented with 5% sheep blood. The quality control strain Staph. aureus 29213 was originally acquired from the American Type Culture Collection (Rockville, Md.).
(§2) MICs were determined by an agar dilution method or microbroth dilution method recommended by NCCLS. Synergy was assessed by agar dilution checker-board method. Minimal inhibitory concentrations (MICS) for each separate drug were determined. The fractional inhibitory concentration (FIC) values were calculated by the MIC of Drug A (e.g., sulbactam/ampicillin) and Drug B (e.g., linezolid or arbekacin) in combination/MIC of Drug A or B alone. The FIC index was determined according to the following formula: [formula]

VRSA strains = experiment: MIC by agar dilution or microbroth dilution method (NCCLS), VRSA strains; type: cell-based, Staph. aureus; conditions: VRSA strains (n = 10)
Experimental: as §1, §2
In total, 48 MRSA strains were tested, including ten VRSA strains isolated from five different countries in the world, 33 MRSA strains isolated from ten Japanese university hospitals, and five MRSA type strains from Juntendo University, Department of Bacteriology, Tokyo, Japan.

Staph. aureus 29213 = experiment: MIC, quality control strain; type: cell-based
Experimental: as §1, §2

[1] = strain JSCC 581 (lacks the mecA gene)
[2] = strain JSCC 590 (lacks the mecA gene)
[3] = strain ATCC 29213, control sample (Ex. 26)
[4] = strain ATCC29213, control sample (Ex. 37)

## teicoplanin
MRSA strains; MRSA strains (n = 38)
  MICs 50%: 1 mg/L
  MICs 90%: 2 mg/L
  MICs Range: 0.5 to 4 mg/L
MRSA strains; strain 85/2082
  MIC Values: 1 µg/mL
MRSA strains; strain 99.3700W
  MIC Values: 4 µg/mL
MRSA strains; strain 99.3759V
  MIC Values: 16 µg/mL
MRSA strains; strain AMC 11094
  MIC Values: 16 µg/mL
MRSA strains; strain BM12612(new)
  MIC Values: 4 µg/mL
MRSA strains; strain H1
  MIC Values: 4 µg/mL
MRSA strains; strain HIP 5827
  MIC Values: 16 µg/mL
MRSA strains; strain HIP 5836
  MIC Values: 8 µg/mL
MRSA strains; strain HIP 6297
  MIC Values: 4 µg/mL
MRSA strains; strain HIP 7737
  MIC Values: 16 µg/mL
MRSA strains; strain JSCC 340
  MIC Values: 1 µg/mL
MRSA strains; strain JSCC 351
  MIC Values: 1 µg/mL
MRSA strains; strain JSCC 363
  MIC Values: 1 µg/mL
MRSA strains; strain JSCC 381
  MIC Values: 1 µg/mL
MRSA strains; strain JSCC 390
  MIC Values: 1 µg/mL
MRSA strains; strain JSCC 401
  MIC Values: 2 µg/mL
MRSA strains; strain JSCC 413
  MIC Values: 2 µg/mL
MRSA strains; strain JSCC 431
  MIC Values: 0.5 µg/mL
MRSA strains; strain JSCC 440
  MIC Values: 2 µg/mL
MRSA strains; strain JSCC 451
  MIC Values: 2 µg/mL
MRSA strains; strain JSCC 463
  MIC Values: 1 µg/mL
MRSA strains; strain JSCC 481
  MIC Values: 2 µg/mL
MRSA strains; strain JSCC 490
  MIC Values: 2 µg/mL
MRSA strains; strain JSCC 501
  MIC Values: 2 µg/mL
MRSA strains; strain JSCC 513
  MIC Values: 1 µg/mL
MRSA strains; strain JSCC 531
  MIC Values: 1 µg/mL
MRSA strains; strain JSCC 540
  MIC Values: 1 µg/mL
MRSA strains; strain JSCC 551
  MIC Values: 1 µg/mL
MRSA strains; strain JSCC 563
  MIC Values: 2 µg/mL
MRSA strains; [1]
  MIC Values: 8 µg/mL
MRSA strains; [2]
  MIC Values: 8 µg/mL
MRSA strains; strain JSCC 601
  MIC Values: 1 µg/mL
MRSA strains; strain JSCC 640
  MIC Values: 1 µg/mL
MRSA strains; strain JSCC 651
  MIC Values: 2 µg/mL
MRSA strains; strain JSCC 663
  MIC Values: 1 µg/mL
MRSA strains; strain JSCC 681
  MIC Values: 0.5 µg/mL
MRSA strains; strain JSCC 690
  MIC Values: 1 µg/mL
MRSA strains; strain JSCC 701
  MIC Values: 1 µg/mL
MRSA strains; strain JSCC 713
  MIC Values: 2 µg/mL
MRSA strains; strain JSCC 731
  MIC Values: 1 µg/mL
MRSA strains; strain JSCC 740
  MIC Values: 1 µg/mL
MRSA strains; strain JSCC 751
  MIC Values: 1 µg/mL
MRSA strains; strain JSCC 763
  MIC Values: 1 µg/mL
MRSA strains; strain JSCC 781
  MIC Values: 4 µg/mL
MRSA strains; strain JSCC 870
  MIC Values: 1 µg/mL
MRSA strains; strain LIM 2
  MIC Values: 8 µg/mL
MRSA strains; strain Mu 3
  MIC Values: 8 µg/mL
MRSA strains; strain Mu 50
  MIC Values: 16 µg/mL
MRSA strains; strain N315
  MIC Values: 0.5 µg/mL
MRSA strains; strain NCTC 10442
  MIC Values: 2 µg/mL
VRSA strains
  MICs Range: 4 to 16 mg/L
Staph. aureus 29213; [3]
  MIC Values: 1 µg/mL
Staph. aureus 29213; [4]
  MIC Values: 1 µg/mL

## Cc1onc(-c2ccccc2)c1C(=O)N[C@@H]1C(=O)N2[C@@H]1SC(C)(C)[C@@H]2C(=O)O [MPIPC, oxacillin]
MRSA strains; strain 85/2082
  MIC Values: 64 µg/mL
MRSA strains; strain HIP 6297
  MIC Values: 64 µg/mL
MRSA strains; strain JSCC 563
  MIC Values: 2 µg/mL
MRSA strains; [1]
  MIC Values: 1 µg/mL
MRSA strains; [2]
  MIC Values: 1 µg/mL
MRSA strains; strain JSCC 601
  MIC Values: 64 µg/mL
MRSA strains; strain N315
  MIC Values: 16 µg/mL
Staph. aureus 29213; [3]
  MIC Values: 0.25 µg/mL
Staph. aureus 29213; [4]
  MIC Values: 0.25 µg/mL
